Measurements published in patent publication EP3192802A1, “STABILIZED PEPTIDE DERIVATIVES” (Bicycle Therapeutics Limited, priority 2016, dated 2017).

Assays:
MT1-MMP [1] = molecular target: T1, MT1-MMP (Homo sapiens, UniProt P50281); test: fluorescence polarisation competition experiments (affinity to MT1-MMP); format: binding; settings: tris-sulfone version, Figure 2
Procedure: Subsequently, the affinity to the MT1-MMP target was measured by fluorescence polarisation competition experiments for 17-69-07-N241, and its sulfone versions (Figure 2).

MT1-MMP [2] = molecular target: T1, MT1-MMP; test: selectivity / cross-reactivity against other MMPs; format: binding; settings: does not cross-react with MMP-1, MMP-2, MMP-15 and MMP-16

| Compound | Kd (MT1-MMP [1]) | selectivity for MT1-MMP (MT1-MMP [2]) |
| --- | --- | --- |
| C[C@H](NC(=O)CN(C)C(=O)CN(C)C(=O)CN(C)C(=O)CN(C)C(=O)CN(C)C(=O)CN(C)C(=O)CN(C)C(=O)CN(C)C(=O)CN(C)C(=O)CN(C)C(=O)CCN)C(=O)N[C@H]1CS(=O)(=O)Cc2cc3cc(c2)CS(=O)(=O)C[C@H](NC(=O)[C@@H](C)NC(=O)[C@H](Cc2cccc4ccccc24)NC(=O)[C@H](CCC(=O)O)NC(=O)[C@H](CC(N)=O)NC(=O)[C@@H](C)NC1=O)C(=O)N[C@@H](CCC(=O)O)C(=O)N[C@@H](CC(=O)O)C(=O)N[C@@H](Cc1ccccc1)C(=O)N[C@@H](Cc1ccc(O)cc1)C(=O)N[C@@H](CC(=O)O)C(=O)N[C@@H](C(C)(C)C)C(=O)N[C@H](C(N)=O)CS(=O)(=O)C3 [17-69-07-N338] | ~10 nM | – |
| -Ci-Y-N-E-F-G-Cii-E-D-F-Y-D-I-Ciii- [17-69-07] | – | uniquely selective for MT1-MMP |
